Measured values from ChEMBL document CHEMBL1201862, “PubChem BioAssay data set” (2004).
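Results reflect a 48-hour exposure of cells in 96-well plates to compound at five concentrations. GI50 = concentration required for 50% inhibition of growth.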 Calls of active or inactive are those of the source. Cut-off read from the data, not from the text of the source: active = GI50 up to about 1.1 µM and inactive = higher.

Columns and labels:
Assay in all cases: NCI tumour cell line growth inhibition, 48 h
786-0 = tested on: 786-0
A549 = tested on: A549
COLO 205 = tested on: COLO 205
HOP-92 = tested on: HOP-92
Hs-578T = tested on: Hs-578T
IGROV-1 = tested on: IGROV-1
KM12 = tested on: KM12
LOX IMVI = tested on: LOX IMVI
MDA-MB-231 = tested on: MDA-MB-231
MOLT-4 = tested on: MOLT-4
Malme-3M = tested on: Malme-3M
NCI-H226 = tested on: NCI-H226
NCI-H522 = tested on: NCI-H522
NCI/ADR-RES = tested on: NCI/ADR-RES
OVCAR-4 = tested on: OVCAR-4
OVCAR-5 = tested on: OVCAR-5
TK-10 = tested on: TK-10
U-251 = tested on: U-251
UACC-62 = tested on: UACC-62
UO-31 = tested on: UO-31

Compound | GI50 (786-0) | GI50 (A549) | GI50 (COLO 205) | GI50 (HOP-92) | GI50 (Hs-578T) | GI50 (IGROV-1) | GI50 (KM12) | GI50 (LOX IMVI) | GI50 (MDA-MB-231) | GI50 (MOLT-4) | GI50 (Malme-3M) | GI50 (NCI-H226) | GI50 (NCI-H522) | GI50 (NCI/ADR-RES) | GI50 (OVCAR-4) | GI50 (OVCAR-5) | GI50 (TK-10) | GI50 (U-251) | GI50 (UACC-62) | GI50 (UO-31)
CC(O)[C@@]1(c2ccccc2)CC2(CCN(C)CC2)O[C@H]1C (stereo partly specified) | > 100 µM (inactive) | > 100 µM (inactive) | > 100 µM (inactive) | 22.2 µM (inactive) | > 100 µM (inactive) | > 100 µM (inactive) | > 100 µM (inactive) | > 100 µM (inactive) | > 100 µM (inactive) | > 100 µM (inactive) | > 100 µM (inactive) | > 100 µM (inactive) | > 100 µM (inactive) | > 100 µM (inactive) | 98.6 µM (inactive) | > 100 µM (inactive) | > 100 µM (inactive) | > 100 µM (inactive) | 99.5 µM (inactive) | 39.8 µM (inactive)
COc1nc(C)nc2c1ncn2Cc1ccccc1 | > 100 µM (inactive) | > 100 µM (inactive) | > 100 µM (inactive) | < 0.01 µM (active) | 99.8 µM (inactive) | > 100 µM (inactive) | > 100 µM (inactive) | > 100 µM (inactive) | > 100 µM (inactive) | – | > 100 µM (inactive) | > 100 µM (inactive) | > 100 µM (inactive) | > 100 µM (inactive) | > 100 µM (inactive) | > 100 µM (inactive) | > 100 µM (inactive) | > 100 µM (inactive) | > 100 µM (inactive) | –
CCOc1cc2c(cc1O)/C(=N/NS(=O)(=O)c1ccc(C)cc1)C[C@@H]1[C@@H]2CC[C@]2(C)[C@@H](O)CC[C@@H]12 | 9.73 µM (inactive) | 6.46 µM (inactive) | 3.36 µM (inactive) | 8.65 µM (inactive) | 7.57 µM (inactive) | 12.1 µM (inactive) | 4.22 µM (inactive) | 8.43 µM (inactive) | 8.51 µM (inactive) | 1.92 µM (inactive) | 7.43 µM (inactive) | 6.01 µM (inactive) | 3.31 µM (inactive) | 3.5 µM (inactive) | 4.78 µM (inactive) | 21 µM (inactive) | 51.1 µM (inactive) | 6.53 µM (inactive) | – | 4.2 µM (inactive)
COc1ccc(C2C3=C(COC3=O)OC(C)(C)Oc3cc4c(cc32)OCO4)cc1 (stereo unspecified) | 39.4 µM (inactive) | 35.6 µM (inactive) | 16.1 µM (inactive) | 11.8 µM (inactive) | 27.4 µM (inactive) | 29.3 µM (inactive) | 8.81 µM (inactive) | 26.2 µM (inactive) | 18.6 µM (inactive) | 23.3 µM (inactive) | 17.7 µM (inactive) | > 55.3 µM (inactive) | 17.4 µM (inactive) | 18.5 µM (inactive) | 33.9 µM (inactive) | 56.8 µM (inactive) | 43.5 µM (inactive) | 31.8 µM (inactive) | 25.5 µM (inactive) | 28.8 µM (inactive)
CC1(C)c2ccccc2C(O)C12CCC(=O)CC2 (stereo unspecified) | > 100 µM (inactive) | 34 µM (inactive) | > 100 µM (inactive) | > 100 µM (inactive) | > 100 µM (inactive) | > 100 µM (inactive) | > 100 µM (inactive) | > 100 µM (inactive) | > 100 µM (inactive) | – | > 100 µM (inactive) | > 100 µM (inactive) | > 100 µM (inactive) | > 100 µM (inactive) | > 100 µM (inactive) | > 100 µM (inactive) | > 100 µM (inactive) | > 100 µM (inactive) | > 100 µM (inactive) | > 100 µM (inactive)
O=C(N/N=C\c1ccc(Cl)cc1)Nc1cccc2ccccc12 | 1.98 µM (inactive) | 6.71 µM (inactive) | 4.75 µM (inactive) | 4.91 µM (inactive) | 2.67 µM (inactive) | 3.49 µM (inactive) | 2.61 µM (inactive) | 4.49 µM (inactive) | 8.89 µM (inactive) | 5.61 µM (inactive) | 4.24 µM (inactive) | 10.4 µM (inactive) | 4.83 µM (inactive) | > 25 µM (inactive) | 2.59 µM (inactive) | 25.8 µM (inactive) | 3.32 µM (inactive) | 2.96 µM (inactive) | 9.48 µM (inactive) | 2.1 µM (inactive)
CC(O)CCNC(=O)Nc1c(C(F)(F)F)cc(-c2ccccc2)[nH]c1=O (stereo unspecified) | > 100 µM (inactive) | > 100 µM (inactive) | > 100 µM (inactive) | > 100 µM (inactive) | > 100 µM (inactive) | > 100 µM (inactive) | > 100 µM (inactive) | > 100 µM (inactive) | > 100 µM (inactive) | > 100 µM (inactive) | 47.3 µM (inactive) | > 100 µM (inactive) | > 100 µM (inactive) | > 100 µM (inactive) | > 100 µM (inactive) | > 100 µM (inactive) | > 100 µM (inactive) | > 100 µM (inactive) | > 100 µM (inactive) | > 100 µM (inactive)
